What all share (format): in vivo
For test [1], the system named is Setaria faberi (SETFA). Kind of test: Biological Example 1B glasshouse assay, pre-emergence application. The following applies: 250 g/ha, 13 days after application. As to the method:
(§1) Seeds of a variety of test plant species were sown in standard soil ** in pots. After cultivation for one day (pre-emergence) or after 8 days cultivation (post-emergence) under controlled conditions in a glasshouse (at 24/16° C., day/night; 14 hours light; 65% humidity), the plants were sprayed with an aqueous spray solution derived from the formulation of the technical active ingredient (the test herbicide) in acetone/water (50:50) solution containing 0.5% Tween 20 (polyoxyethylene sorbitan monolaurate, CAS Reg. No. 9005-64-5). The test plants were then grown on under controlled conditions in a glasshouse (at 24/16° C., day/night; 14 hours light; 65% humidity) and watered twice daily. 13 Days after application of the test herbicide, for pre- and post-emergence, the test was evaluated visually for percentage phytotoxicity to each plant (where 100%=total damage to plant; 0%=no damage to plant). Generally, each test herbicide is only tested on 1 plant per plant species for each application rate tested and for each application timing. ** The “standard soil” in Biological Example 1 is usually a “sand” or “sandy loam” type of soil.
(§2) Dicotyledonous weeds: ABUTH=Abutilon theophrasti; AMARE=Amaranthus retroflexus. Grassy monocotyledonous weeds: SETFA=Setaria faberi; ALOMY=Alopecurus myosuroides; ECHCG=Echinochloa crus-galli; ZEAMX=Zea mays (corn, maize, e.g. volunteer corn). For Compound A16, the grassy monocotyledonous weed LOLPE (Lolium perenne) was used in the test insterad of ALOMY.

Test [2] concerns Abutilon theophrasti (ABUTH). The description is as above. The conditions noted are these: 250 g/ha, 13 days after application. On the procedure:
as §1, §2

Test [3] has as its system Alopecurus myosuroides (ALOMY). Described as above. The conditions noted are these: 250 g/ha, 13 days after application. On the procedure:
as §1, §2

Test [4] relates to Echinochloa crus-galli (ECHCG). Described as above. The conditions noted are these: 250 g/ha, 13 days after application. As to the method:
as §1, §2

Test [5] has as its system Amaranthus retroflexus (AMARE). The test is described as above. The following applies: 250 g/ha, 13 days after application. As to the method:
as §1, §2

For test [6], the system named is Zea mays (ZEAMX, corn, maize, e.g. volunteer corn). The description is as above. The conditions noted are these: 250 g/ha, 13 days after application. As to the method:
as §1, §2

Test [7] deals with Setaria faberi (SETFA). Kind of test: Biological Example 1A glasshouse assay, post-emergence application. The conditions noted are these: Setaria faberi, 312 h, post-emergence, 13 days after application, read-out: Percentage phytotoxicity SETFA. On the procedure:
as §1, §2

Test [8] relates to Abutilon theophrasti (ABUTH). The test is described as above. The following applies: 312 h, 13 days after application, read-out: Percentage phytotoxicity ABUTH. As to the method:
as §1, §2

For test [9], the system named is Alopecurus myosuroides (ALOMY). The test is described as above. The conditions noted are these: 13 days after application. On the procedure: as §1, §2
The subject of test [10] is Echinochloa crus-galli (ECHCG). The test is described as above. The conditions noted are these: 312 h, 13 days after application, read-out: Percentage phytotoxicity ECHCG. As to the method:
as §1, §2

Test [11] relates to Amaranthus retroflexus (AMARE). The test is described as above. The conditions noted are these: 312 h, 13 days after application, read-out: Percentage phytotoxicity AMARE. On the procedure: as §1, §2
Test [12] deals with Zea mays (ZEAMX, corn, maize, e.g. volunteer corn). Described as above. The conditions noted are these: Zea mays, 312 h, post-emergence, 13 days after application, read-out: Percentage phytotoxicity ZEAMX. On the procedure:
as §1, §2

In test [13] the test system is grassy (in particular warm climate grassy) monocotyledonous weeds. Nature of the test: Post-emergence herbicidal activity, summary statements on Biological Examples 1 to 3. The following applies: applied at about 250 g/ha post-emergence; Biological Examples 1 and 2. On the procedure: as §1
Seeds of a variety of monocotyledonous and dicotyledonous test plants are sown in standard soil in pots. The plants are cultivated for one day (for pre-emergence) or for about 12 days (range=10-13 days) (for post-emergence) under controlled conditions in a glasshouse (warm climate species at 24/18° C., cool climate species at 20/16° C., both at day/night; 16 hours light; 65% humidity). An “instant formulation”, known as the “IF50”, containing 50 g/litre (i.e. 5% w/v) of the “technical” (i.e. unformulated) active ingredient is prepared by dissolving the active ingredient in a mixture of organic solvents and emulsifier, details of which are provided in the Table below. […]
The test plants are then grown on, in a glasshouse (greenhouse) under controlled conditions (at either 24/18° C. or 20/16° C. (day/night) as mentioned above; 16 hours light; 65% humidity) and are watered twice daily. Either 14 or 15 days after application of the herbicide (14 or 15 DAA) (for post-emergence), or 20 days after application of the herbicide (20 DAA) (for pre-emergence), the test plants are evaluated visually, and an assessed percentage phytotoxicity score is given for each herbicidal application on each plant species (where 100%=total damage to plant; 0%=no damage to plant). […]

Molecules are shown by their SMILES.

As to `CC#Cc1cc(F)c(C2C(=O)CCC2=O)c(OC)c1` [Compound A9], the “Percentage phytotoxicity SETFA” value in [1] is listed as 80%. Further, in test [2], the “Percentage phytotoxicity ABUTH” value came to 0%. Also, the “Percentage phytotoxicity ALOMY” value worked out at 30% in test [3], 0% in test [9] (30 g/ha) and 20% in [9] (250 g/ha). In addition, the “Percentage phytotoxicity ECHCG” value in test [4] came to 80%. Moreover, the “Percentage phytotoxicity AMARE” value in test [5] was 20%. For the same compound, the “Percentage phytotoxicity ZEAMX” value in test [6] amounted to 80%. The pest or weed control at 30 g/ha in [7] was determined as 70%; in test [8], 0%; in test [10], 60%; in [11], 0%; in test [12] it was 70%. For the same compound, the pest or weed control at 250 g/ha in [7] stood at 80%; in [8], 30%; in test [10], 70%; in [11], 20%; in test [12], 90%. For the same compound, in test [13], the “post-emergent herbicidal potency against grassy monocotyledonous weeds (in words)” value is listed as “potent post-emergent herbicides”.
With `CC#Cc1cc(F)c(C2C(=O)C(C)(C)OC(C)(C)C2=O)c(OC)c1` [Compound A10], in test [1], the “Percentage phytotoxicity SETFA” value is given as 70%. The “Percentage phytotoxicity ABUTH” value in test [2] stood at 0%. The “Percentage phytotoxicity ALOMY” value in [3] is 50%; in test [9] (30 g/ha), 40%; in test [9] (250 g/ha), 80%. Moreover, the “Percentage phytotoxicity ECHCG” value in test [4] came out at 90%. In test [5], the “Percentage phytotoxicity AMARE” value amounted to 0%. In test [6], the “Percentage phytotoxicity ZEAMX” value is listed as 50%. The pest or weed control at 30 g/ha in test [7] turned out to be 70%; in [8], 0%; in test [10] it was 50%; in test [11], 0%; in test [12] it was 40%. Besides, the pest or weed control at 250 g/ha in test [7] was 90%; in [8] it was 0%; in test [10] it was 80%; in test [11], 0%; in test [12], 90%. For the same compound, the “post-emergent herbicidal potency against grassy monocotyledonous weeds (in words)” value in test [13] is recorded as “potent post-emergent herbicides”.

The record behind these values is patent US10696686B2, “Herbicidally active (alkynyl-phenyl)-substituted cyclic dione compounds and derivatives thereof” (Syngenta Limited, priority 2013, dated 2020).
